Tested on: 699152-130-R-J1-PDC complex spheroid viability
Test: Anticancer human tumor 699152-130-R-J1-PDC patient-derived pancreatic carcinoma cell line growth inhibition [POLQ]
Conditions: for IC50: curve of first compound; for viability, T/C: stronger effect = lower value
Procedure, shortened: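 Patient-derived tumour cells were co-cultured with HUVEC and mesenchymal stem cells as multicellular spheroids at 37 °C. They were treated with POLQ inhibitors (novobiocin, ART-558, RP6685) alone or combined with other agents. Top concentrations were at or near clinical Cmax (otherwise 10 microM; SN-38 at 1 microM), decreasing in half-log steps.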

[1] = second compound 0.0316 µM, first compound 0.0316 µM
[2] = second compound 0.0316 µM, first compound 0.1 µM
[3] = second compound 0.0316 µM, first compound 0.316 µM
[4] = second compound 0.0316 µM, first compound 1 µM
[5] = second compound 0.1 µM, first compound 0.0316 µM
[6] = second compound 0.1 µM, first compound 0.1 µM
[7] = second compound 0.1 µM, first compound 0.316 µM
[8] = second compound 0.1 µM, first compound 1 µM
[9] = second compound 0.316 µM, first compound 0.0316 µM
[10] = second compound 0.316 µM, first compound 0.1 µM
[11] = second compound 0.316 µM, first compound 0.316 µM
[12] = second compound 0.316 µM, first compound 1 µM
[13] = second compound 1 µM, first compound 0.0316 µM
[14] = second compound 1 µM, first compound 0.1 µM
[15] = second compound 1 µM, first compound 0.316 µM
[16] = second compound 1 µM, first compound 1 µM
[17] = second compound 3.16 µM, first compound 0.0316 µM
[18] = second compound 3.16 µM, first compound 0.1 µM
[19] = second compound 3.16 µM, first compound 0.316 µM
[20] = second compound 3.16 µM, first compound 1 µM
[21] = second compound 10 µM, first compound 0.0316 µM
[22] = second compound 10 µM, first compound 0.1 µM
[23] = second compound 10 µM, first compound 0.316 µM
[24] = second compound 10 µM, first compound 1 µM
[25] = second compound 0.0316 µM, first compound 3.16 µM
[26] = second compound 0.0316 µM, first compound 10 µM
[27] = second compound 0.1 µM, first compound 3.16 µM
[28] = second compound 0.1 µM, first compound 10 µM
[29] = second compound 0.316 µM, first compound 3.16 µM
[30] = second compound 0.316 µM, first compound 10 µM
[31] = second compound 1 µM, first compound 3.16 µM
[32] = second compound 1 µM, first compound 10 µM
[33] = second compound 3.16 µM, first compound 3.16 µM
[34] = second compound 3.16 µM, first compound 10 µM
[35] = second compound 10 µM, first compound 3.16 µM
[36] = second compound 10 µM, first compound 10 µM
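Note: spheroids exposed to agents for 7 days before viability reading.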
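Throughout, for viability, T/C: percent of DMSO vehicle control viability so 100% = vehicle and 0% = no viable signal.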

C=CCn1c(=O)c2cnc(Nc3ccc(N4CCN(C)CC4)cc3)nc2n1-c1cccc(C(C)(C)O)n1 + COC1C(OC(N)=O)C(O)C(Oc2ccc3c(O)c(NC(=O)c4ccc(O)c(CC=C(C)C)c4)c(=O)oc3c2C)OC1(C)C
IC50 (second compound 0.0316 µM): > 1 µM | IC50 (second compound 0.1 µM): > 1 µM | IC50 (second compound 0.316 µM): > 1 µM | IC50 (second compound 1 µM): > 1 µM | IC50 (second compound 3.16 µM): > 1 µM | IC50 (second compound 10 µM): > 1 µM | viability, T/C (second compound 0.0316 µM, first compound 0.00316 µM): 90.2% | viability, T/C (second compound 0.0316 µM, first compound 0.01 µM): 98.2% | viability, T/C [1]: 99.4% | viability, T/C [2]: 90.2% | viability, T/C [3]: 94.6% | viability, T/C [4]: 77.4% | viability, T/C (second compound 0.1 µM, first compound 0.00316 µM): 102% | viability, T/C (second compound 0.1 µM, first compound 0.01 µM): 102% | viability, T/C [5]: 109% | viability, T/C [6]: 95% | viability, T/C [7]: 98.7% | viability, T/C [8]: 75% | viability, T/C (second compound 0.316 µM, first compound 0.00316 µM): 97.7% | viability, T/C (second compound 0.316 µM, first compound 0.01 µM): 95.1% | viability, T/C [9]: 94.8% | viability, T/C [10]: 104% | viability, T/C [11]: 104% | viability, T/C [12]: 70.7% | viability, T/C (second compound 1 µM, first compound 0.00316 µM): 108% | viability, T/C (second compound 1 µM, first compound 0.01 µM): 93.9% | viability, T/C [13]: 92.1% | viability, T/C [14]: 99.5% | viability, T/C [15]: 90% | viability, T/C [16]: 74% | viability, T/C (second compound 3.16 µM, first compound 0.00316 µM): 107% | viability, T/C (second compound 3.16 µM, first compound 0.01 µM): 92.9% | viability, T/C [17]: 105% | viability, T/C [18]: 96.6% | viability, T/C [19]: 96.4% | viability, T/C [20]: 76.5% | viability, T/C (second compound 10 µM, first compound 0.00316 µM): 99.1% | viability, T/C (second compound 10 µM, first compound 0.01 µM): 101% | viability, T/C [21]: 96.3% | viability, T/C [22]: 98.7% | viability, T/C [23]: 95% | viability, T/C [24]: 68%

COc1cc2cc(C(=O)CCC(=O)O)sc2cc1OC + COC1C(OC(N)=O)C(O)C(Oc2ccc3c(O)c(NC(=O)c4ccc(O)c(CC=C(C)C)c4)c(=O)oc3c2C)OC1(C)C
IC50 (second compound 0.0316 µM): > 10 µM | IC50 (second compound 0.1 µM): > 10 µM | IC50 (second compound 0.316 µM): > 10 µM | IC50 (second compound 1 µM): > 10 µM | IC50 (second compound 3.16 µM): > 10 µM | IC50 (second compound 10 µM): > 10 µM | viability, T/C [1]: 104% | viability, T/C [2]: 113% | viability, T/C [3]: 97.1% | viability, T/C [4]: 95.8% | viability, T/C [25]: 106% | viability, T/C [26]: 103% | viability, T/C [5]: 91.2% | viability, T/C [6]: 109% | viability, T/C [7]: 94.3% | viability, T/C [8]: 93.7% | viability, T/C [27]: 103% | viability, T/C [28]: 97.5% | viability, T/C [9]: 107% | viability, T/C [10]: 110% | viability, T/C [11]: 105% | viability, T/C [12]: 108% | viability, T/C [29]: 101% | viability, T/C [30]: 95.8% | viability, T/C [13]: 110% | viability, T/C [14]: 105% | viability, T/C [15]: 93% | viability, T/C [16]: 102% | viability, T/C [31]: 98.6% | viability, T/C [32]: 103% | viability, T/C [17]: 110% | viability, T/C [18]: 98.6% | viability, T/C [19]: 107% | viability, T/C [20]: 92.4% | viability, T/C [33]: 109% | viability, T/C [34]: 102% | viability, T/C [21]: 113% | viability, T/C [22]: 100% | viability, T/C [23]: 120% | viability, T/C [24]: 107% | viability, T/C [35]: 98.8% | viability, T/C [36]: 106%

CC1COCCN1c1cc(-c2ccnn2C)c2ccnc(-c3ccn[nH]3)c2n1 (stereo not drawn) + Nc1ccc(C#CCN(C(=O)Cc2ncc(C(F)(F)F)cc2C(F)(F)F)c2ccc(F)cc2)nn1
IC50 (second compound 0.0316 µM): > 10 µM | IC50 (second compound 0.1 µM): > 10 µM | IC50 (second compound 0.316 µM): > 10 µM | IC50 (second compound 1 µM): 6.83 µM | IC50 (second compound 3.16 µM): > 10 µM | IC50 (second compound 10 µM): > 10 µM | viability, T/C [1]: 88.4% | viability, T/C [2]: 91.3% | viability, T/C [3]: 80.4% | viability, T/C [4]: 63.5% | viability, T/C [25]: 52.9% | viability, T/C [26]: 50% | viability, T/C [5]: 90.9% | viability, T/C [6]: 89% | viability, T/C [7]: 75.4% | viability, T/C [8]: 66.6% | viability, T/C [27]: 52.8% | viability, T/C [28]: 53.3% | viability, T/C [9]: 102% | viability, T/C [10]: 90.6% | viability, T/C [11]: 75.4% | viability, T/C [12]: 58.9% | viability, T/C [29]: 48.5% | viability, T/C [30]: 53.9% | viability, T/C [13]: 101% | viability, T/C [14]: 82.8% | viability, T/C [15]: 71.4% | viability, T/C [16]: 58% | viability, T/C [31]: 52.2% | viability, T/C [32]: 49.2% | viability, T/C [17]: 107% | viability, T/C [18]: 92.7% | viability, T/C [19]: 75.6% | viability, T/C [20]: 55.3% | viability, T/C [33]: 47.2% | viability, T/C [34]: 57% | viability, T/C [21]: 114% | viability, T/C [22]: 94.3% | viability, T/C [23]: 80.9% | viability, T/C [24]: 58% | viability, T/C [35]: 64.5% | viability, T/C [36]: 49.9%

COc1cc2cc(C(=O)CCC(=O)O)sc2cc1OC + Cc1cccc(N(C)C(=O)C2C(O)CCN2c2nc(C)cc(C(F)(F)F)c2C#N)c1
IC50 (second compound 0.0316 µM): > 10 µM | IC50 (second compound 0.1 µM): > 10 µM | IC50 (second compound 0.316 µM): > 10 µM | IC50 (second compound 1 µM): > 10 µM | IC50 (second compound 3.16 µM): > 10 µM | IC50 (second compound 10 µM): > 10 µM | viability, T/C [1]: 99.4% | viability, T/C [2]: 91.8% | viability, T/C [3]: 92.6% | viability, T/C [4]: 98.7% | viability, T/C [25]: 110% | viability, T/C [26]: 95.3% | viability, T/C [5]: 113% | viability, T/C [6]: 108% | viability, T/C [7]: 106% | viability, T/C [8]: 90.3% | viability, T/C [27]: 121% | viability, T/C [28]: 93.2% | viability, T/C [9]: 93% | viability, T/C [10]: 105% | viability, T/C [11]: 92.5% | viability, T/C [12]: 102% | viability, T/C [29]: 114% | viability, T/C [30]: 94.9% | viability, T/C [13]: 94.8% | viability, T/C [14]: 99.4% | viability, T/C [15]: 92.1% | viability, T/C [16]: 106% | viability, T/C [31]: 107% | viability, T/C [32]: 107% | viability, T/C [17]: 102% | viability, T/C [18]: 97.8% | viability, T/C [19]: 104% | viability, T/C [20]: 105% | viability, T/C [33]: 89.1% | viability, T/C [34]: 93.3% | viability, T/C [21]: 92.2% | viability, T/C [22]: 102% | viability, T/C [23]: 105% | viability, T/C [24]: 96% | viability, T/C [35]: 98.9% | viability, T/C [36]: 103%

From PubChem BioAssay AID1963835 (Molecular Pharmacology Branch, DTP, NCI, 2024)
